Where a SMILES comes first, the peptide text is derived from it.
Assays:
[1] = test system: human immunodeficiency virus (HIV); assay: Anti-HIV activity: protection of HIV-infected MT-4 cells from cell death, MTT method; settings: for SI (CC50 /ED50): rough ratio of CC50 to EC50, MT-4 cells
Description: To a 96-well microtiter plate, HIV-infected MT-4 cells (2.5×10^4 cells/well, Multiplicity of infection (MOI): 0.001) was added immediately after the infection along with test materials in various concentrations. […] On the other hand, in order to know the cytotoxicity of the test substances on the MT-4 cells, virus-non-infected cells were cultured with the test materials in various concentrations as described above. […] And the rough ratio of CC50 to EC50 (CC50 /EC50) is expressed as an effective ratio (SI).

[2] = test system: MT-4 cells; assay: Cytotoxicity on virus-non-infected MT-4 cells, MTT method; assay type: cell-based; settings: 5 days at 37° C.
[3] = HIV-infected MT-4 cells, MOI 0.001, 5 days at 37° C., MTT method

Molecule	EC50 (concentration to suppress 50% of cell death due to HIV infection) [1, 3] [µg/mL]	CC50 (50% cytotoxic concentration) [2] [µg/mL]	SI (CC50 /ED50) [1]	EC50 ([1]; read-out: EC50 (concentration to suppress 50% of cell death due to HIV infection), HIV-infected MT-4 cells, MOI 0.001, 5 days at 37° C., MTT method, unit μM printed with the compound) [µM]	CC50 (50% cytotoxic concentration) ([2]; unit μM printed with the compound) [µM]
N=C(N)NCCC[C@H](NC(=O)[C@@H]1CSSC[C@H](NC(=O)[C@H](Cc2c[nH]c3ccccc23)NC(=O)[C@H](CCCNC(=N)N)NC(=O)[C@@H](N)CCCNC(=N)N)C(=O)N[C@@H](Cc2ccc(O)cc2)C(=O)N[C@@H](CCCNC(=N)N)C(=O)N[C@@H](CCCCN)C(=O)N[C@H]2CSSC[C@H](NC(=O)[C@H](Cc3ccc(O)cc3)NC(=O)CNC(=O)[C@H](CCCCN)NC(=O)[C@H](Cc3ccc(O)cc3)NC2=O)C(=O)N[C@@H](Cc2ccc(O)cc2)C(=O)N[C@@H](CCCNC(=N)N)C(=O)N[C@@H](CCCCN)C(=O)N1)C(N)=O [Polypeptide (1)] (HELM PEPTIDE1{R.R.W.C.Y.R.K.C.Y.K.G.Y.C.Y.R.K.C.R.[am]}$PEPTIDE1,PEPTIDE1,4:R3-17:R3|PEPTIDE1,PEPTIDE1,8:R3-13:R3$$$V2.0; bridges inferred)	0.0047	41.53			
N=C(N)NCCC[C@H](NC(=O)[C@H](CS)NC(=O)[C@H](CCCCN)NC(=O)[C@H](CCCNC(=N)N)NC(=O)[C@H](Cc1ccc(O)cc1)NC(=O)[C@@H]1CCCN1C(=O)[C@@H](CCCCN)NC(=O)[C@H](CCCCN)NC(=O)[C@H](CCCNC(=N)N)NC(=O)[C@H](Cc1ccc(O)cc1)NC(=O)[C@H](CS)NC(=O)[C@H](Cc1c[nH]c2ccccc12)NC(=O)[C@H](CCCNC(=N)N)NC(=O)[C@@H](N)CCCNC(=N)N)C(N)=O [Reduced form of] (HELM PEPTIDE1{R.R.W.C.Y.R.K.[dK].P.Y.R.K.C.R.[am]}$$$$V2.0)	0.040	41.17			
N=C(N)NCCC[C@H](NC(=O)[C@@H]1CSSC[C@H](NC(=O)[C@H](Cc2c[nH]c3ccccc23)NC(=O)[C@H](CCCNC(=N)N)NC(=O)[C@@H](N)CCCNC(=N)N)C(=O)N[C@@H](Cc2ccc(O)cc2)C(=O)N[C@@H](CCCNC(=N)N)C(=O)N[C@@H](CCCCN)C(=O)N[C@H](CCCCN)C(=O)N2CCC[C@H]2C(=O)N[C@@H](Cc2ccc(O)cc2)C(=O)N[C@@H](CCCNC(=N)N)C(=O)N[C@@H](CCCCN)C(=O)N1)C(N)=O [Polypeptide (2), Arg-Arg-Trp-Cys-Tyr-Arg-Lys----------DLys-Pro-----------Tyr-Arg-Lys-Cys-Arg-NH2] (HELM PEPTIDE1{R.R.W.C.Y.R.K.[dK].P.Y.R.K.C.R.[am]}$PEPTIDE1,PEPTIDE1,4:R3-13:R3$$$V2.0)	0.029	44.60	1565		
N=C(N)NCCC[C@H](NC(=O)[C@H](CS)NC(=O)[C@H](CCCCN)NC(=O)[C@H](CCCNC(=N)N)NC(=O)[C@H](Cc1ccc(O)cc1)NC(=O)[C@H](CS)NC(=O)[C@H](Cc1ccc(O)cc1)NC(=O)CNC(=O)[C@H](CCCCN)NC(=O)[C@H](Cc1ccc(O)cc1)NC(=O)[C@H](CS)NC(=O)[C@H](CCCCN)NC(=O)[C@H](CCCNC(=N)N)NC(=O)[C@H](Cc1ccc(O)cc1)NC(=O)[C@H](CS)NC(=O)[C@H](Cc1c[nH]c2ccccc12)NC(=O)[C@H](CCCNC(=N)N)NC(=O)[C@@H](N)CCCNC(=N)N)C(N)=O [Reduced form of polypeptide (1)] (H-RRWCYRKCYKGYCYRKCR-NH2)	0.0052	41.27			
Dextran sulfate [reference compound]	0.68				
Cc1cn([C@H]2C[C@H](N=[N+]=[N-])[C@@H](CO)O2)c(=O)[nH]c1=O [AZT, reference compound]			1716	0.0011	1.93

Source: US6329498A, “Polypeptide transition metal salts and method of enhancing anti-HIV activity of polypeptide” (Seikagaku Corporation, priority 1996, dated 2001)
